PubChem BioAssay AID330 (DTP/NCI, 2004)
Where “and” joins values, the source holds several entries; their conditions need not be identical. Equal entries are not always repeated. Inconclusive results and toxic doses are left out.

Tested on: P388 leukemia ip, CD2F1 mice, survival T/C
Assay: NCI In Vivo Anticancer Drug Screen. Data for tumor model P388 Leukemia (intraperitoneal) in CD2F1 (CDF1) mice
Details: endpoint: median survival time, higher = longer survival
Method in brief: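 Mice carrying the transplanted tumor received test compound or vehicle. Survival was recorded in each group, and the value is the treated-group measurement divided by that of the vehicle-treated control group.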

[1] = dose: 60.0 mg/kg/injection, schedule: Q01DX005 (ip), vehicle: saline with Tween-80
[2] = dose: 120.0 mg/kg/injection, schedule: Q01DX005 (ip), vehicle: saline with Tween-80
[3] = dose: 50.0 mg/kg/injection, schedule: Q01DX005 (ip), vehicle: Klucel (hydroxypropylcellulose) (HPC)
[4] = dose: 100.0 mg/kg/injection, schedule: Q01DX005 (ip), vehicle: Klucel (hydroxypropylcellulose) (HPC)
[5] = dose: 200.0 mg/kg/injection, schedule: Q01DX005 (ip), vehicle: Klucel (hydroxypropylcellulose) (HPC)
[6] = dose: 100.0 mg/kg/injection, schedule: Q04DX003 (ip), vehicle: Klucel (hydroxypropylcellulose) (HPC)
[7] = dose: 200.0 mg/kg/injection, schedule: Q04DX003 (ip), vehicle: Klucel (hydroxypropylcellulose) (HPC)
[8] = dose: 400.0 mg/kg/injection, schedule: Q04DX003 (ip), vehicle: Klucel (hydroxypropylcellulose) (HPC)
[9] = dose: 50.0 mg/kg/injection, schedule: Q01DX009 (ip), vehicle: saline with Tween-80
[10] = dose: 100.0 mg/kg/injection, schedule: Q01DX009 (ip), vehicle: saline with Tween-80
[11] = dose: 200.0 mg/kg/injection, schedule: Q01DX009 (ip), vehicle: saline with Tween-80
[12] = dose: 50.0 mg/kg/injection, schedule: Q01DX009 (ip), vehicle: saline
[13] = dose: 100.0 mg/kg/injection, schedule: Q01DX009 (ip), vehicle: saline
[14] = dose: 200.0 mg/kg/injection, schedule: Q01DX009 (ip), vehicle: saline
[15] = dose: 240.0 mg/kg/injection, schedule: Q01DX005 (ip), vehicle: saline with Tween-80
[16] = dose: 60.0 mg/kg/injection, schedule: Q01DX005 (ip), vehicle: Klucel (hydroxypropylcellulose) (HPC)
[17] = dose: 120.0 mg/kg/injection, schedule: Q01DX005 (ip), vehicle: Klucel (hydroxypropylcellulose) (HPC)
[18] = dose: 240.0 mg/kg/injection, schedule: Q01DX005 (ip), vehicle: Klucel (hydroxypropylcellulose) (HPC)
[19] = dose: 25.0 mg/kg/injection, schedule: Q01DX009 (ip), vehicle: saline

## C=CCOc1cc2c(cc1C(C)c1ccccc1OC)OCO2 (stereo not given)
dose: 50.0 mg/kg/injection, schedule: Q01DX005 (ip), vehicle: saline with Tween-80
  T/C: 99 % of control
dose: 100.0 mg/kg/injection, schedule: Q01DX005 (ip), vehicle: saline with Tween-80
  T/C: 97 % of control
dose: 200.0 mg/kg/injection, schedule: Q01DX005 (ip), vehicle: saline with Tween-80
  T/C: 104 % of control

## CCCCCCCC(=O)N/N=C(\CO)[C@]1(O)Cc2c(O)c3c(c(O)c2[C@@H](OC2CC(N)C(O)C(C)O2)C1)C(=O)c1c(OC)cccc1C3=O (stereo not given in full)
dose: 1.25 mg/kg/injection, schedule: Q04DX003 (ip), vehicle: water
  T/C: 109 % of control
dose: 2.5 mg/kg/injection, schedule: Q04DX003 (ip), vehicle: water
  T/C: 109 % of control
dose: 5.0 mg/kg/injection, schedule: Q04DX003 (ip), vehicle: water
  T/C: 107 % of control
dose: 10.0 mg/kg/injection, schedule: Q04DX003 (ip), vehicle: water
  T/C: 119 % of control and 121 % of control
dose: 20.0 mg/kg/injection, schedule: Q04DX003 (ip), vehicle: water
  T/C: 123 % of control
dose: 80.0 mg/kg/injection, schedule: Q04DX003 (ip), vehicle: water
  T/C: 179 % of control

## CNc1nc2cc(OC)c(OC)cc2c(=O)[nH]1
dose: 15.0 mg/kg/injection, schedule: Q01DX005 (ip), vehicle: saline with Tween-80
  T/C: 98 % of control
dose: 30.0 mg/kg/injection, schedule: Q01DX005 (ip), vehicle: saline with Tween-80
  T/C: 94 % of control
[1]
  T/C: 91 % of control and 98 % of control
[2]
  T/C: 100 % of control

## Oc1ccc(O)c(-c2c(-c3ccccc3)cc3ccccn23)c1
[3]
  T/C: 102 % of control
[4]
  T/C: 104 % of control
[5]
  T/C: 104 % of control

## CC1(Cl)C(=O)OC2CCC(O)C(O)C21 (stereo not given)
[6]
  T/C: 101 % of control
[7]
  T/C: 102 % of control
[8]
  T/C: 106 % of control

## CCN(CC)C(=O)CSc1ccc(Cl)nn1
[9]
  T/C: 97 % of control
[10]
  T/C: 98 % of control
[11]
  T/C: 94 % of control

## CCC[CH2][Sn]([CH3])([CH3])[CH2]CCN(C)C
[12]
  T/C: 98 % of control
[13]
  T/C: 98 % of control
[14]
  T/C: 88 % of control

## CCCCCCCCCCCC(=O)OCCN(CCOC(=O)CCCCCCCCCCC)C(=O)c1ccccc1
[9]
  T/C: 95 % of control
[10]
  T/C: 100 % of control
[11]
  T/C: 93 % of control

## COc1ccccc1N1C(=S)N(c2cccc(Cl)c2Cl)C(=O)C(N=Nc2cccc(Cl)c2Cl)C1O (stereo not given)
[6]
  T/C: 104 % of control
[7]
  T/C: 104 % of control
[8]
  T/C: 98 % of control

## O=S(=O)(ON=C1C=CC(=NOS(=O)(=O)c2ccccc2)C=C1)c1ccccc1
dose: 25.0 mg/kg/injection, schedule: Q04DX003 (ip), vehicle: Klucel (hydroxypropylcellulose) (HPC)
  T/C: 107 % of control and 94 % of control
dose: 50.0 mg/kg/injection, schedule: Q04DX003 (ip), vehicle: Klucel (hydroxypropylcellulose) (HPC)
  T/C: 103 % of control and 87 % of control and 94 % of control
[6]
  T/C: 94 % of control
[7]
  T/C: 99 % of control and 100 % of control
[8]
  T/C: 116 % of control

## CC(C)=NNC(=O)CNc1cccc(C(F)(F)F)c1
[1]
  T/C: 97 % of control
[2]
  T/C: 100 % of control
[15]
  T/C: 106 % of control

## N#CC1Sc2ccccc2N1C(=O)Oc1ccccc1 (stereo not given)
[1]
  T/C: 102 % of control
[2]
  T/C: 106 % of control
[15]
  T/C: 106 % of control

## Cc1cccc(NC(=O)Nc2ccc(F)cc2)n1
[16]
  T/C: 101 % of control
[17]
  T/C: 96 % of control
[18]
  T/C: 100 % of control

## O=C(NC(Cc1ccccc1)C(=O)O)OCc1ccccc1 (stereo not given)
[3]
  T/C: 100 % of control
[4]
  T/C: 92 % of control
dose: 177.0 mg/kg/injection, schedule: Q01DX009 (ip), vehicle: saline with Tween-80
  T/C: 107 % of control
[5]
  T/C: 102 % of control
dose: 266.0 mg/kg/injection, schedule: Q01DX009 (ip), vehicle: saline with Tween-80
  T/C: 109 % of control
dose: 400.0 mg/kg/injection, schedule: Q01DX009 (ip), vehicle: saline with Tween-80
  T/C: 116 % of control

## CC/C(=C(/CC)c1ccc(OCC(=O)N/N=C2\CCC3C4CCc5cc(O)ccc5C4CCC23C)cc1)c1ccc(OCC(=O)N/N=C2/CCC3C4CCc5cc(O)ccc5C4CCC23C)cc1 (stereo not given)
dose: 3.12 mg/kg/injection, schedule: Q01DX001 (ip), vehicle: Klucel (hydroxypropylcellulose) (HPC)
  T/C: 100 % of control
dose: 6.25 mg/kg/injection, schedule: Q01DX001 (ip), vehicle: Klucel (hydroxypropylcellulose) (HPC)
  T/C: 102 % of control
dose: 12.5 mg/kg/injection, schedule: Q01DX001 (ip), vehicle: Klucel (hydroxypropylcellulose) (HPC)
  T/C: 97 % of control
dose: 50.0 mg/kg/injection, schedule: Q01DX001 (ip), vehicle: Klucel (hydroxypropylcellulose) (HPC)
  T/C: 91 % of control
dose: 200.0 mg/kg/injection, schedule: Q01DX001 (ip), vehicle: Klucel (hydroxypropylcellulose) (HPC)
  T/C: 87 % of control

## c1ccc(-c2csc(-c3nc(-c4ccccc4)cs3)n2)cc1
dose: 25.0 mg/kg/injection, schedule: Q01DX009 (ip), vehicle: Klucel (hydroxypropylcellulose) (HPC)
  T/C: 117 % of control
dose: 50.0 mg/kg/injection, schedule: Q01DX009 (ip), vehicle: Klucel (hydroxypropylcellulose) (HPC)
  T/C: 113 % of control
[1]
  T/C: 99 % of control
dose: 100.0 mg/kg/injection, schedule: Q01DX009 (ip), vehicle: Klucel (hydroxypropylcellulose) (HPC)
  T/C: 118 % of control
[2]
  T/C: 96 % of control
dose: 200.0 mg/kg/injection, schedule: Q01DX009 (ip), vehicle: Klucel (hydroxypropylcellulose) (HPC)
  T/C: 110 % of control
[15]
  T/C: 96 % of control

## c1ccc2c(c1)ccc1c(-c3ccncc3)n[nH]c12
[9]
  T/C: 99 % of control
[10]
  T/C: 88 % of control
[11]
  T/C: 87 % of control

## CC(=O)N(OC1OC(CO)C(O)C(O)C1O)c1ccc(Oc2ccc(Cl)cc2)cc1 (stereo not given)
[16]
  T/C: 104 % of control
[17]
  T/C: 92 % of control

## COC(=O)c1cc(OC(C)=O)c2cc3c(cc2c1-c1cc(OC)c(OC)c(OC)c1)OCO3
[6]
  T/C: 93 % of control
[7]
  T/C: 89 % of control

## CC(=O)SC1CC(=O)OC1=O (stereo not given)
[19]
  T/C: 100 % of control
[12]
  T/C: 105 % of control
[13]
  T/C: 96 % of control
[14]
  T/C: 105 % of control

## CCCOC1=NC2=NC(OCCC)=NC3=C(Br)C=C(Br)C(=N1)N23
[3]
  T/C: 95 % of control
[4]
  T/C: 94 % of control
[5]
  T/C: 91 % of control

## O=C1OCC(c2ccno2)=C1O
[16]
  T/C: 100 % of control
[17]
  T/C: 100 % of control
[18]
  T/C: 104 % of control

## CCOC(=O)C1C(c2cccc(OC)c2O)c2cc3c(cc2OC1(C)N1CCCC1)OCO3 (stereo not given)
[1]
  T/C: 99 % of control
[2]
  T/C: 92 % of control
[15]
  T/C: 89 % of control

## CCOC(=O)c1cc(-c2ccccn2)c(=O)n2ccccc12
dose: 12.5 mg/kg/injection, schedule: Q01DX009 (ip), vehicle: saline
  T/C: 108 % of control
[19]
  T/C: 107 % of control
[9]
  T/C: 100 % of control
[12]
  T/C: 100 % of control

## C=C1C(=O)N2c3ccccc3C(C)(C)C2(S)C(=O)N1C (stereo not given)
[12]
  T/C: 102 % of control
[13]
  T/C: 100 % of control
[14]
  T/C: 100 % of control

## COc1cc(C(O)CCBr)c(OC)cc1C (stereo not given)
[1]
  T/C: 100 % of control
[2]
  T/C: 100 % of control
[15]
  T/C: 95 % of control

## O=C(O)C(CBr)CBr
dose: 25.0 mg/kg/injection, schedule: Q01DX009 (ip), vehicle: water
  T/C: 107 % of control
dose: 50.0 mg/kg/injection, schedule: Q01DX009 (ip), vehicle: water
  T/C: 106 % of control
dose: 100.0 mg/kg/injection, schedule: Q01DX009 (ip), vehicle: water
  T/C: 100 % of control

## Fc1ccc(N/N=c2\nnc3ccc(F)cc3s2)cc1
dose: 100.0 mg/kg/injection, schedule: Q04DX002 (ip), vehicle: saline with Tween-80
  T/C: 102 % of control
dose: 200.0 mg/kg/injection, schedule: Q04DX002 (ip), vehicle: saline with Tween-80
  T/C: 95 % of control
dose: 400.0 mg/kg/injection, schedule: Q04DX002 (ip), vehicle: saline with Tween-80
  T/C: 94 % of control

## O=C(CBr)C1(Br)CCN(Cc2ccccc2)CC1
dose: 3.13 mg/kg/injection, schedule: Q01DX009 (ip), vehicle: Klucel (hydroxypropylcellulose) (HPC)
  T/C: 109 % of control
dose: 6.25 mg/kg/injection, schedule: Q01DX009 (ip), vehicle: Klucel (hydroxypropylcellulose) (HPC)
  T/C: 115 % of control
dose: 12.5 mg/kg/injection, schedule: Q01DX009 (ip), vehicle: Klucel (hydroxypropylcellulose) (HPC)
  T/C: 109 % of control

## Nc1nnc(-c2ccc(-c3nnc(N)o3)cc2)o1
[1]
  T/C: 98 % of control
[2]
  T/C: 100 % of control
[15]
  T/C: 100 % of control
